The text below walks through data of US10457703B2, “Bile acid derivatives as FXR/TGR5 agonists and methods of use thereof” (ENANTA PHARMACEUTICALS, INC., priority 2015, dated 2019).

This experiment concerns the target human FXR (NR1H4) (Homo sapiens (Human), UniProt Q96RI1). As to the kind of experiment: Human FXR (NR1H4) Assay (Gal4 promoter driven luciferase reporter, Indigo Bioscience kit).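 For Efficacy (%): 100% equals the efficacy of CDCA; efficacy normalized to CDCA set as 100%.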 In kind it is cell-based. The settings on record: for EC50: Human FXR (NR1H4) Assay, potency ranges; for Emax: read-out: Efficacy (%). A digest of the protocol: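 CHO reporter cells expressing human FXR with an FXR-responsive luciferase reporter, treated with compound doses at 0.2% DMSO. Incubation lasted 22 h at 37 °C before luciferase detection reagent was added. Luminescence was then read.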

The structures appear in SMILES notation.

Sequence of human FXR (NR1H4) (Q96RI1 whole entry, the tested form may be a part): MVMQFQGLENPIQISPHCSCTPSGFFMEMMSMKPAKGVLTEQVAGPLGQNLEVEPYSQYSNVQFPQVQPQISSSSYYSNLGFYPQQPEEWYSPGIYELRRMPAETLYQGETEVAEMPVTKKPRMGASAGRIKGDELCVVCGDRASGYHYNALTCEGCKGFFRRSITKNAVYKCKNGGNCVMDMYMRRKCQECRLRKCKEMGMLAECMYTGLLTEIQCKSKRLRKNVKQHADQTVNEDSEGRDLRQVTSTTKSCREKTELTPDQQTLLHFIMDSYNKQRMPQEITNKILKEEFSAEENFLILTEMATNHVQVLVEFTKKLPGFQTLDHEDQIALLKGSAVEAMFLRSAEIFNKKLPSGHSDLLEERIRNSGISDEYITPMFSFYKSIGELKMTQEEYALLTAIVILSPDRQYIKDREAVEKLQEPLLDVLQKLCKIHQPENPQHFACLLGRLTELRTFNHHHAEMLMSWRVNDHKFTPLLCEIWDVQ

Regarding `CCCCS(=O)(=O)NC(=O)OCC[C@@H](C)[C@H]1CC[C@H]2[C@@H]3[C@H](O)[C@H](CC)[C@@H]4C[C@H](O)CC[C@]4(C)[C@H]3CC[C@]12C` [Example 57], the 50% effective concentration (EC50) was below 100 nM and the Emax amounted to 392%.

In the case of `CC[C@H]1[C@@H](O)[C@@H]2[C@H](CC[C@]3(C)[C@@H]([C@H](C)CCOC(=O)NS(=O)(=O)C[C@]45CCC(CC4=O)C5(C)C)CC[C@@H]23)[C@@]2(C)CC[C@@H](O)C[C@@H]12` [Example 58], the EC50 was below 100 nM and the Emax turned out to be 366%.

For the molecule `CC[C@H]1[C@@H](O)[C@@H]2[C@H](CC[C@]3(C)[C@@H]([C@H](C)CCOC(=O)NS(=O)(=O)N4CCOCC4)CC[C@@H]23)[C@@]2(C)CC[C@@H](O)C[C@@H]12` [Example 59], the EC50 was below 100 nM and the Emax was determined as 428%.

Turning to `CC[C@H]1[C@@H](O)[C@@H]2[C@H](CC[C@]3(C)[C@@H]([C@H](C)CCOC(=O)NS(=O)(=O)c4ccccc4)CC[C@@H]23)[C@@]2(C)CC[C@@H](O)C[C@@H]12` [Example 60], the concentration giving a half-maximal response (EC50) is below 100 nM and the Emax came to 309%.

Regarding `CC[C@H]1[C@@H](O)[C@@H]2[C@H](CC[C@]3(C)[C@@H]([C@H](C)CCOC(=O)NS(=O)(=O)c4ccc(Cl)cc4)CC[C@@H]23)[C@@]2(C)CC[C@@H](O)C[C@@H]12` [Example 61], the half-maximal effective concentration (EC50) was below 100 nM and the Emax was 270%.

On to `CC[C@H]1[C@@H](O)[C@@H]2[C@H](CC[C@]3(C)[C@@H]([C@H](C)CCOC(=O)NS(=O)(=O)c4ccc(C(C)(C)C)s4)CC[C@@H]23)[C@@]2(C)CC[C@@H](O)C[C@@H]12` [Example 62], for which the half-maximal effective concentration (EC50) was below 100 nM and the Emax came out at 299%.

For `CC[C@H]1[C@@H](O)[C@@H]2[C@H](CC[C@]3(C)[C@@H]([C@H](C)CCOC(=O)NS(=O)(=O)c4cccc(OC(F)(F)F)c4)CC[C@@H]23)[C@@]2(C)CC[C@@H](O)C[C@@H]12` [Example 63], the EC50 is below 100 nM and the Emax was 396%.

For `CC[C@H]1[C@@H](O)[C@@H]2[C@H](CC[C@]3(C)[C@@H]([C@H](C)CCOC(=O)NS(=O)(=O)c4ccc(-c5ccccc5)s4)CC[C@@H]23)[C@@]2(C)CC[C@@H](O)C[C@@H]12` [Example 64], the concentration for a half-maximal effect (EC50) is 100 to 1000 nM and the Emax was found to be 281%.

For the molecule `CC[C@H]1[C@@H](O)[C@@H]2[C@H](CC[C@]3(C)[C@@H]([C@H](C)CCOC(=O)NS(=O)(=O)c4cccc(Cl)c4)CC[C@@H]23)[C@@]2(C)CC[C@@H](O)C[C@@H]12` [Example 65], the EC50 was below 100 nM and the Emax came out at 322%.

`CC[C@H]1[C@@H](O)[C@@H]2[C@H](CC[C@]3(C)[C@@H]([C@H](C)CCOC(=O)NS(=O)(=O)c4cccc(F)c4)CC[C@@H]23)[C@@]2(C)CC[C@@H](O)C[C@@H]12` [Example 66]: the 50% effective concentration (EC50) fell in the range of 100 to 1000 nM and the Emax amounted to 320%.

For the molecule `CC[C@H]1[C@@H](O)[C@@H]2[C@H](CC[C@]3(C)[C@@H]([C@H](C)CCOC(=O)NS(=O)(=O)c4ccc5c(c4)CCC5)CC[C@@H]23)[C@@]2(C)CC[C@@H](O)C[C@@H]12` [Example 67], the concentration for a half-maximal effect (EC50) is below 100 nM and the Emax was found to be 290%.

With `CC[C@H]1[C@@H](O)[C@@H]2[C@H](CC[C@]3(C)[C@@H]([C@H](C)CCOC(=O)NS(=O)(=O)c4ccc(-c5ccccc5)cc4)CC[C@@H]23)[C@@]2(C)CC[C@@H](O)C[C@@H]12` [Example 68], the EC50 was in the range of 100 to 1000 nM and the Emax is 286%.

In the case of `CC[C@H]1[C@@H](O)[C@@H]2[C@H](CC[C@]3(C)[C@@H]([C@H](C)CCOC(=O)NS(=O)(=O)N4CCCCC4)CC[C@@H]23)[C@@]2(C)CC[C@@H](O)C[C@@H]12` [Example 69], the EC50 is below 100 nM and the Emax worked out at 368%.

As to `CC[C@H]1[C@@H](O)[C@@H]2[C@H](CC[C@]3(C)[C@@H]([C@H](C)CCOC(=O)NS(=O)(=O)c4ccc(C(C)(C)CO)cc4)CC[C@@H]23)[C@@]2(C)CC[C@@H](O)C[C@@H]12` [Example 70], the EC50 was below 100 nM and the Emax was 333%.

Regarding `CC[C@H]1[C@@H](O)[C@@H]2[C@H](CC[C@]3(C)[C@@H]([C@H](C)CCOC(=O)NS(=O)(=O)c4ccccc4F)CC[C@@H]23)[C@@]2(C)CC[C@@H](O)C[C@@H]12` [Example 71], the 50% effective concentration (EC50) was 100 to 1000 nM and the Emax turned out to be 317%.

Take `CC[C@H]1[C@@H](O)[C@@H]2[C@H](CC[C@]3(C)[C@@H]([C@H](C)CCOC(=O)NS(=O)(=O)c4ccccn4)CC[C@@H]23)[C@@]2(C)CC[C@@H](O)C[C@@H]12` [Example 72]: the half-maximal effective concentration (EC50) was in the range of 1000 to 10000 nM and the Emax worked out at 305%.

Turning to `CC[C@H]1[C@@H](O)[C@@H]2[C@H](CC[C@]3(C)[C@@H]([C@H](C)CCOC(=O)NS(=O)(=O)c4ccncc4)CC[C@@H]23)[C@@]2(C)CC[C@@H](O)C[C@@H]12` [Example 73], the EC50 was 1000 to 10000 nM and the Emax worked out at 352%.

`CC[C@H]1[C@@H](O)[C@@H]2[C@H](CC[C@]3(C)[C@@H]([C@H](C)CCOC(=O)N4CCCS4(=O)=O)CC[C@@H]23)[C@@]2(C)CC[C@@H](O)C[C@@H]12` [Example 74]: the concentration giving a half-maximal response (EC50) was 100 to 1000 nM and the Emax worked out at 358%.

On to `CC[C@H]1[C@@H](O)[C@@H]2[C@H](CC[C@]3(C)[C@@H]([C@H](C)CCOC(=O)NS(=O)(=O)C(C)C)CC[C@@H]23)[C@@]2(C)CC[C@@H](O)C[C@@H]12` [Example 75], for which the EC50 is below 100 nM and the Emax was 386%.

In the case of `CC[C@H]1[C@@H](O)[C@@H]2[C@H](CC[C@]3(C)[C@@H]([C@H](C)CCOC(=O)NS(=O)(=O)c4ccccc4Cl)CC[C@@H]23)[C@@]2(C)CC[C@@H](O)C[C@@H]12` [Example 76], the concentration giving a half-maximal response (EC50) was 100 to 1000 nM and the Emax is 234%.

Regarding `CC[C@H]1[C@@H](O)[C@@H]2[C@H](CC[C@]3(C)[C@@H]([C@H](C)CCOC(=O)NS(=O)(=O)c4ccccc4OC(F)(F)F)CC[C@@H]23)[C@@]2(C)CC[C@@H](O)C[C@@H]12` [Example 77], the EC50 was in the range of 100 to 1000 nM and the Emax came to 383%.

`CC[C@H]1[C@@H](O)[C@@H]2[C@H](CC[C@]3(C)[C@@H]([C@H](C)CCOC(=O)NS(=O)(=O)c4cccc(C(F)(F)F)c4)CC[C@@H]23)[C@@]2(C)CC[C@@H](O)C[C@@H]12` [Example 78]: the concentration for a half-maximal effect (EC50) was 100 to 1000 nM and the Emax amounted to 365%.

In the case of `CC[C@H]1[C@@H](O)[C@@H]2[C@H](CC[C@]3(C)[C@@H]([C@H](C)CCOC(=O)NS(=O)(=O)c4ccc(C(F)(F)F)cc4)CC[C@@H]23)[C@@]2(C)CC[C@@H](O)C[C@@H]12` [Example 79], the concentration for a half-maximal effect (EC50) was below 100 nM and the Emax was 376%.

For `CC[C@H]1[C@@H](O)[C@@H]2[C@H](CC[C@]3(C)[C@@H]([C@H](C)CCOC(=O)NS(=O)(=O)c4ccccc4C(F)(F)F)CC[C@@H]23)[C@@]2(C)CC[C@@H](O)C[C@@H]12` [Example 80], the 50% effective concentration (EC50) lay within 100 to 1000 nM and the Emax was determined as 363%.

Regarding `CC[C@H]1[C@@H](O)[C@@H]2[C@H](CC[C@]3(C)[C@@H]([C@H](C)CCOC(=O)NS(=O)(=O)c4cccc5ccccc45)CC[C@@H]23)[C@@]2(C)CC[C@@H](O)C[C@@H]12` [Example 81], the 50% effective concentration (EC50) is below 100 nM and the Emax was determined as 372%.

On to `CC[C@H]1[C@@H](O)[C@@H]2[C@H](CC[C@]3(C)[C@@H]([C@H](C)CCOC(=O)NS(=O)(=O)c4cnn(C)c4)CC[C@@H]23)[C@@]2(C)CC[C@@H](O)C[C@@H]12` [Example 82], for which the EC50 fell in the range of 1000 to 10000 nM and the Emax is 294%.

With `CC[C@H]1[C@@H](O)[C@@H]2[C@H](CC[C@]3(C)[C@@H]([C@H](C)CCOC(=O)NS(=O)(=O)CCOC)CC[C@@H]23)[C@@]2(C)CC[C@@H](O)C[C@@H]12` [Example 83], the EC50 was in the range of 100 to 1000 nM and the Emax amounted to 275%.

For `CC[C@H]1[C@@H](O)[C@@H]2[C@H](CC[C@]3(C)[C@@H]([C@H](C)CCOC(=O)NS(=O)(=O)c4ccccc4OC)CC[C@@H]23)[C@@]2(C)CC[C@@H](O)C[C@@H]12` [Example 84], the EC50 is below 100 nM and the Emax came out at 270%.

Take `CC[C@H]1[C@@H](O)[C@@H]2[C@H](CC[C@]3(C)[C@@H]([C@H](C)CCOC(=O)NS(=O)(=O)c4ccccc4C(C)(C)C)CC[C@@H]23)[C@@]2(C)CC[C@@H](O)C[C@@H]12` [Example 85]: the EC50 was below 100 nM and the Emax came out at 240%.

Regarding `CC[C@H]1[C@@H](O)[C@@H]2[C@H](CC[C@]3(C)[C@@H]([C@H](C)CCOC(=O)NS(=O)(=O)c4cccc(OC)c4)CC[C@@H]23)[C@@]2(C)CC[C@@H](O)C[C@@H]12` [Example 86], the half-maximal effective concentration (EC50) was 100 to 1000 nM and the Emax was determined as 288%.

Consider `CC[C@H]1[C@@H](O)[C@@H]2[C@H](CC[C@]3(C)[C@@H]([C@H](C)CCOC(=O)NS(=O)(=O)c4ccc(OC)c(OC)c4)CC[C@@H]23)[C@@]2(C)CC[C@@H](O)C[C@@H]12` [Example 87], for which the EC50 was in the range of 100 to 1000 nM and the Emax amounted to 274%.

Consider `CC[C@H]1[C@@H](O)[C@@H]2[C@H](CC[C@]3(C)[C@@H]([C@H](C)CCOC(=O)NS(=O)(=O)c4ccc5ccccc5c4)CC[C@@H]23)[C@@]2(C)CC[C@@H](O)C[C@@H]12` [Example 88], for which the EC50 is below 100 nM and the Emax was found to be 236%.

`CC[C@H]1[C@@H](O)[C@@H]2[C@H](CC[C@]3(C)[C@@H]([C@H](C)CCOC(=O)NS(=O)(=O)c4ccc5c(c4)CCCC5)CC[C@@H]23)[C@@]2(C)CC[C@@H](O)C[C@@H]12` [Example 89]: the EC50 is below 100 nM and the Emax is 278%.
